Measurements reported in patent publication US20240150377A1, “MODULATORS OF CYSTIC FIBROSIS TRANSMEMBRANE CONDUCTANCE REGULATOR” (VERTEX PHARMACEUTICALS INCORPORATED, priority 2020, published 2024).

Columns and labels:
CFTR [1] = target: T1, CFTR (Homo sapiens, UniProt P13569); assay: Membrane potential dye, Enteroid Assay B; assay type: cell-based; conditions: for EC50: read-out: Ent. B EC50
Method: Base medium (ADF+++) consisted of Advanced DMEM/Ham's F12, 2 mM Glutamax, 10 mM HEPES, […] penicillin/streptomycin.
Intestinal enteroid maintenance medium (IEMM) consisted of ADF+++, 1× B27 supplement, 1× N2 supplement, 1.25 mM N-acetyl cysteine, 10 mM Nicotinamide, 50 ng/mL hEGF, 10 nM Gastrin, 1 μg/mL hR-spondin-1, 100 ng/mL hNoggin, TGF-b type 1 inhibitor A-83-01, 100 μg/mL Primocin, 10 μM P38 MAPK inhibitor SB202190.
Bath 1 Buffer consisted of 1 mM MgCl2, 160 mM NaCl, 4.5 mM KCl, 10 mM HEPES, 10 mM Glucose, 2 mM CaCl2).
Chloride Free Buffer consisted of 1 mM Magnesium Gluconate, 2 mM Calcium Gluconate, 4.5 mM Potassium Gluconate, 160 mM Sodium Gluconate, 10 mM HEPES, 10 mM Glucose.
BathI Dye Solution consisted of Bath 1 Buffer, 0.04% Pluronic F127, 20 μM Methyl Oxonol, 30 μM CaCCinh-A01, 30 μM Chicago Sky Blue.
Chloride Free Dye Solution consisted of Chloride Free Buffer, 0.04% Pluronic F127, 20 μM Methyl Oxonol, 30 μM CaCCinh-A01, 30 μM Chicago Sky Blue.
Chloride Free Dye Stimulation Solution consisted of Chloride Free Dye Solution, 10 μM forskolin, 100 μM IBMX, and 300 nM Compound III.
Human intestinal epithelial enteroid cells were obtained from the Hubrecht Institute for Developmental Biology and Stem Cell Research, Utrecht, The Netherlands and expanded in T-Flasks as previously described (Dekkers J F, Wiegerinck C L, de Jonge H R, Bronsveld I, Janssens H M, de Winter-de Groot K M, Brandsma A M, de Jong N W M, Bijvelds M J C, Scholte B J, Nieuwenhuis E E S, van den Brink S, Clevers H, van der Ent C K, Middendorp S and M Beekman J M. A functional CFTR assay using primary cystic fibrosis intestinal organoids. Nat Med. 2013 July;19(7):939-45.).
3. Enteroid Cell Harvesting and Seeding
Cells were recovered in cell recovery solution, collected by centrifugation at 650 rpm for 5 min at 4° C., resuspended in TrypLE and incubated for 5 min at 37° C. Cells were then collected by centrifugation at 650 rpm for 5 min at 4° C. and resuspended in IEMM containing 10 μM ROCK inhibitor (RI). The cell suspension was passed through a 40 μm cell strainer and resuspended at 1×10^6 cells/mL in IEMM containing 10 μM RI. Cells were seeded at 5000 cells/well into multi-well plates and incubated for overnight at 37° C., 95% humidity and 5% CO2 prior to assay.
5. Membrane Potential Dye, Enteroid Assay B
Enteroid cells were incubated with test compound in IEMM for 18-24 hours at 37° C., 95% humidity and 5% CO2. […] Briefly, cells were washed 5 times in Bath 1 Buffer. Bath 1 Dye Solution was added and the cells were incubated for 25 min at room temperature. Following dye incubation, cells were washed 3 times in Chloride Free Dye Solution. Chloride transport was initiated by addition of Chloride Free Dye Stimulation Solution and the fluorescence signal was read for 15 min. […] Chloride transport was then expressed as a percentage of the chloride transport following treatment with 1 μM (14S)-8-[3-(2-{Dispiro[2.0.2.1]heptan-7-yl}ethoxy)-1H-pyrazol-1-yl]-12,12-dimethyl-2λ^6-thia-3,9,11,18,23-pentaazatetracyclo[17.3.1.111,14.05,10]tetracosa-1(22),5,7,9,19(23),20-hexaene-2,2,4-trione, 3 μM (R)-1-(2,2-difluorobenzo[d][1,3]dioxol-5-yl)-N-(1-(2,3-dihydroxypropyl)-6-fluoro-2-(1-hydroxy-2-methylpropan-2-yl)-1H-indol-5-yl)cyclopropanecarboxamide and 300 nM acute N-[2,4-bis(1,1-dimethylethyl)-5-hydroxyphenyl]-1,4-dihydro-4-oxoquinoline-3-carboxamide triple combination control (% Activity).

CFTR [2] = target: T1, CFTR; assay: Membrane potential dye, Enteroid Assay A; assay type: cell-based; conditions: for Ent. A Max Activity: chloride transport as % of triple combination control (Enteroid Assay A); for EC50: human enteroid cells, 18-24 hours, acute 10 μM forskolin and 300 nM ivacaftor, read-out: Ent. A EC50
Method in brief: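 Human intestinal enteroids incubated 18-24 h at 37 °C with test compound, then loaded with 20 μM methyl oxonol (with CaCC inhibitors). Chloride transport triggered in chloride-free buffer with 10 μM forskolin, 100 μM IBMX, 300 nM Compound III; fluorescence read 15 min, expressed as % of a triple-combination corrector/potentiator control.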

T1 sequence (P13569 with tags, fused parts or gaps DEL508-508): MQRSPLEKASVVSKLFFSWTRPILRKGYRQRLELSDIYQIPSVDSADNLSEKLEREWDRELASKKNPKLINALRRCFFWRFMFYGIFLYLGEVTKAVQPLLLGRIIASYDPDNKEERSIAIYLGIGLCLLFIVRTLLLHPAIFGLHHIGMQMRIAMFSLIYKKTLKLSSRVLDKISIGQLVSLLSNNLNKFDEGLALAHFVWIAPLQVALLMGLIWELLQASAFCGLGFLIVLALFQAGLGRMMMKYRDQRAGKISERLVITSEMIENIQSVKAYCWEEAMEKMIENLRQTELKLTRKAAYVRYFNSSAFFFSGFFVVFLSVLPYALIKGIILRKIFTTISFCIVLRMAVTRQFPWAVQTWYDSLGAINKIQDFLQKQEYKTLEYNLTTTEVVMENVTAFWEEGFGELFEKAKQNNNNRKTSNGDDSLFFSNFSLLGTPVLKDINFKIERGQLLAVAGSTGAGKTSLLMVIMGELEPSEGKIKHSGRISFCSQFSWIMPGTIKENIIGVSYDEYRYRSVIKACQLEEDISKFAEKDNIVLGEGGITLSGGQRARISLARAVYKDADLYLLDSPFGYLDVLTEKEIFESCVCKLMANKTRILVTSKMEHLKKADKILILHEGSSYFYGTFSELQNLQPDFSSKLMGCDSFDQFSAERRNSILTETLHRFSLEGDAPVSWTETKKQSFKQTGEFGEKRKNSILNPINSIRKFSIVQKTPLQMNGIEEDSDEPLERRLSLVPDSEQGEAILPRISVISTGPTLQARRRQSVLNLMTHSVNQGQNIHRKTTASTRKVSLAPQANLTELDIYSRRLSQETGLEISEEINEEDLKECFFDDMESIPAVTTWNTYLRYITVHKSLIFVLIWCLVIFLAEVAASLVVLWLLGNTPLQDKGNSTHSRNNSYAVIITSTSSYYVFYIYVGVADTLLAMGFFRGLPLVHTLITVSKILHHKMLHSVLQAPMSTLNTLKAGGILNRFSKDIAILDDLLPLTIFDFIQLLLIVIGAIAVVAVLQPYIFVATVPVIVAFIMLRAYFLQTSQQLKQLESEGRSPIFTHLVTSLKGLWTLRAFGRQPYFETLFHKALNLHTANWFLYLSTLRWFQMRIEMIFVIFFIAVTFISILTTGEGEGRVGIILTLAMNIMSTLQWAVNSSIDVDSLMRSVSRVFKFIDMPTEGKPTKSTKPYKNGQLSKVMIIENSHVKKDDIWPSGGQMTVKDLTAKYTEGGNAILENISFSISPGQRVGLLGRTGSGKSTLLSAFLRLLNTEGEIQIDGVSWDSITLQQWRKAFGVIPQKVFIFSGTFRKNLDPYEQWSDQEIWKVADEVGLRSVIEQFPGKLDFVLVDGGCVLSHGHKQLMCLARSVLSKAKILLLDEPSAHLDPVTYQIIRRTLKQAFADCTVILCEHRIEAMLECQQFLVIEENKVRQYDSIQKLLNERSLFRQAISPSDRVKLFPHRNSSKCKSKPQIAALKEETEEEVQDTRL

Row | SMILES | Ent. A Max Activity (CFTR [2]; Table 7) | EC50 (CFTR [2]; Table 7) [µM] | other results
1 | Cc1cccc(C)c1-c1cc2nc(n1)NS(=O)(=O)c1cccc(c1)C(=O)N(CC1CC(O)(Cc3ccccc3)C1)[C@H](CC(C)(C)C)CO2 (single isomer, unassigned) [Compound 67] |  |  | Ent. B Max Activity (%) (CFTR [1]; Table 9): +++ (+++ is >600%); EC50 (CFTR [1]; Table 9): < 1 µM
2 | Cc1cccc(C)c1-c1cc2nc(n1)NS(=O)(=O)c1cccc(c1)C(=O)N(CC1CC(O)(Cc3ccccc3)C1)[C@H](CC(C)(C)C)CO2 (single isomer, unassigned) [Compound 68] |  |  | Ent. B Max Activity (%) (CFTR [1]; Table 9): +++ (+++ is >600%); EC50 (CFTR [1]; Table 9): < 1 µM
3 | Cc1cccc(C)c1-c1cc2nc(n1)NS(=O)(=O)c1cccc(c1)C(=O)N(C)CC(c1ccc(CC3(C(F)(F)F)CC3)cn1)O2 (single isomer, unassigned) [Compound 104, 6-(2,6-dimethylphenyl)-12-methyl-10-(5-{[1-(trifluoromethyl)cyclopropyl]methyl}pyridin-2-yl)-9-oxa-2λ^6-thia-3,5,12,19-tetraazatricyclo[12.3.1.14,8]nonadeca-1(17),4(19),5,7,14(18),15-hexaene-2,2,13-trione] |  |  | Ent. B Max Activity (CFTR [1]; Table 8, chloride transport as % of triple combination control (Enteroid Assay B)): +++ (+++ is >60%); EC50 (CFTR [1]; Table 8, human enteroid cells, 18-24 hours, acute 10 μM forskolin and 300 nM ivacaftor): < 1 µM
4 | CC(=O)N1Cc2cccc(c2)S(=O)(=O)Nc2nc(cc(-c3c(C)cccc3C)n2)OC[C@H]1CC(C)C [Compound 1025] | + (+ is <30%) |  | 
5 | Cc1cccc(C)c1-c1cc2nc(n1)NS(=O)(=O)c1cccc(c1)CN(Cc1cc(C)c3[nH]ncc3c1)[C@H](CC(C)C)CO2 [Compound 1027] | +++ (+++ is >60%) | < 1 | 
6 | Cc1cccc(C)c1-c1cc2nc(n1)NS(=O)(=O)c1cccc(c1)CN(Cc1cccnc1OCC1CC1)[C@H](CC(C)C)CO2 [Compound 1028] | +++ (+++ is >60%) | < 1 | 
7 | Cc1cccc(C)c1-c1cc2nc(n1)NS(=O)(=O)c1cccc(c1)CN(Cc1ccc(Oc3ccccc3)cc1)[C@H](CC(C)C)CO2 [Compound 1030] | ++ (++ is 30-60%) | < 1 | 
8 | COc1ccc(CN2Cc3cccc(c3)S(=O)(=O)Nc3nc(cc(-c4c(C)cccc4C)n3)OC[C@H]2CC(C)C)cc1C(F)(F)F [Compound 1031] | ++ (++ is 30-60%) | < 1 | 
9 | Cc1cccc(C)c1-c1cc2nc(n1)NS(=O)(=O)c1cccc(c1)CN(Cc1ccc3c(c1)OC(F)(F)O3)[C@H](CC(C)C)CO2 [Compound 1032] | ++ (++ is 30-60%) | < 1 | 
10 | Cc1cccc(C)c1-c1cc2nc(n1)NS(=O)(=O)c1cccc(c1)CN(Cc1cnc(C3CCCCC3)nc1)[C@H](CC(C)C)CO2 [Compound 1033] | ++ (++ is 30-60%) | < 1 | 
11 | Cc1cccc(C)c1-c1cc2nc(n1)NS(=O)(=O)c1cccc(c1)CN(Cc1ccccc1-c1ccccc1)[C@H](CC(C)C)CO2 [Compound 1034] | ++ (++ is 30-60%) | < 1 | 
12 | CCc1nccc(CN2Cc3cccc(c3)S(=O)(=O)Nc3nc(cc(-c4c(C)cccc4C)n3)OC[C@H]2CC(C)C)n1 [Compound 1035] | ++ (++ is 30-60%) | < 1 | 
13 | Cc1cccc(C)c1-c1cc2nc(n1)NS(=O)(=O)c1cccc(c1)CN(Cc1ccccc1OC(C)C)[C@H](CC(C)C)CO2 [Compound 1036] | ++ (++ is 30-60%) | < 1 | 
14 | Cc1cccc(C)c1-c1cc2nc(n1)NS(=O)(=O)c1cccc(c1)CN(Cc1ccccc1OCc1ccccc1)[C@H](CC(C)C)CO2 [Compound 1037] | ++ (++ is 30-60%) | < 1 | 
15 | CCOc1cc(CN2Cc3cccc(c3)S(=O)(=O)Nc3nc(cc(-c4c(C)cccc4C)n3)OC[C@H]2CC(C)C)ccc1OC [Compound 1038] | ++ (++ is 30-60%) | < 1 | 
16 | Cc1cccc(C)c1-c1cc2nc(n1)NS(=O)(=O)c1cccc(c1)CN(CCn1c(=O)oc3ccccc31)[C@H](CC(C)C)CO2 [Compound 1039] | ++ (++ is 30-60%) | < 1 | 
17 | Cc1cccc(C)c1-c1cc2nc(n1)NS(=O)(=O)c1cccc(c1)CN(CCc1ccccc1)[C@H](CC(C)C)CO2 [Compound 1040] | ++ (++ is 30-60%) | < 1 | 
18 | Cc1cccc(C)c1-c1cc2nc(n1)NS(=O)(=O)c1cccc(c1)CN(CC1CCOCC1)[C@H](CC(C)C)CO2 [Compound 1041] | +++ (+++ is >60%) | < 1 | 
19 | COCCN1Cc2cccc(c2)S(=O)(=O)Nc2nc(cc(-c3c(C)cccc3C)n2)OC[C@H]1CC(C)C [Compound 1042] | + + | < 1 | 
20 | Cc1cccc(C)c1-c1cc2nc(n1)NS(=O)(=O)c1cccc(c1)CN(Cc1ccccc1)[C@H](CC(C)C)CO2 [Compound 1044] |  |  | Ent. A Max Activity (CFTR [2]; Table 6): ++ (++ is 30-60%); EC50 (CFTR [2]; Table 6): < 1 µM
21 | COC1CCC(CC(=O)N2Cc3cccc(c3)S(=O)(=O)Nc3nc(cc(-c4c(C)cccc4C)n3)OC[C@H]2CC(C)C)CC1 (stereo partly drawn) [Compound 1045] | + (+ is <30%) |  | 
22 | Cc1cccc(C)c1-c1cc2nc(n1)NS(=O)(=O)c1cccc(c1)CN(C(=O)CC(C)(C)C)[C@H](CC(C)C)CO2 [Compound 1046] | + (+ is <30%) |  | 
23 | COC1CCC(CC(=O)N2Cc3cccc(c3)S(=O)(=O)Nc3nc(cc(-c4c(C)cccc4C)n3)OC[C@H]2CC(C)C)CC1 (stereo partly drawn) [Compound 1047] | + (+ is <30%) |  | 
24 | Cc1cccc(C)c1-c1cc2nc(n1)NS(=O)(=O)c1cccc(c1)CN(C(=O)CC1CCN(C)CC1)[C@H](CC(C)C)CO2 [Compound 1048] | +++ (+++ is >60%) | 1 to 3 | 
25 | Cc1cccc(C)c1-c1cc2nc(n1)NS(=O)(=O)c1cccc(c1)CN(C(=O)CC(C)C)[C@H](CC(C)C)CO2 [Compound 1049] | + (+ is <30%) |  | 
26 | Cc1cccc(C)c1-c1cc2nc(n1)NS(=O)(=O)c1cccc(c1)CN(C(=O)CC1CCCCC1)[C@H](CC(C)C)CO2 [Compound 1050] | + (+ is <30%) | 1 to 3 | 
27 | Cc1cccc(C)c1-c1cc2nc(n1)NS(=O)(=O)c1cccc(c1)CN(C(=O)Cc1ccccc1)[C@H](CC(C)C)CO2 [Compound 1051] | ++ (++ is 30-60%) | 1 to 3 | 
28 | CCCC(=O)N1Cc2cccc(c2)S(=O)(=O)Nc2nc(cc(-c3c(C)cccc3C)n2)OC[C@H]1CC(C)C [Compound 1052] | ++ (++ is 30-60%) |  | 
29 | Cc1cccc(C)c1-c1cc2nc(n1)NS(=O)(=O)c1cccc(c1)C(=O)N(CCN1CCOCC1)[C@H](CC(C)C)CO2 [Compound 1108] |  |  | Ent. A Max Activity (CFTR [2]; Table 6): +++ (+++ is >60%); EC50 (CFTR [2]; Table 6): < 1 µM
30 | Cc1cccc(C)c1-c1cc2nc(n1)NS(=O)(=O)c1cccc(c1)C(=O)N(Cc1ccc(=O)[nH]c1)[C@H](CC(C)C)CO2 [Compound 1109] |  |  | Ent. A Max Activity (CFTR [2]; Table 6): +++ (+++ is >60%); EC50 (CFTR [2]; Table 6): 1 to 3 µM
